Source: ChEMBL document CHEMBL1909046, “DrugMatrix in vitro pharmacology data”

Key:
[1] = target: Beta-3 adrenergic receptor (Homo sapiens, UniProt P13945); experiment: DRUGMATRIX: Adrenergic beta3 radioligand binding (ligand: [125I] Cyanopindolol); type: cell membranes, HEK293, Membrane; details: Not Active = under 50% inhibition at 10 µM
Thromboxane-A synthase = target: T1, Thromboxane-A synthase (Homo sapiens, UniProt P24557); experiment: biochemical; type: tissue-based, Platelet;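 further: enzyme inhibition assay with PGH2 supplied as substrate; in other assays of this panel Not Active means under 50% inhibition at 10 µM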
T1 sequence (P24557 whole entry): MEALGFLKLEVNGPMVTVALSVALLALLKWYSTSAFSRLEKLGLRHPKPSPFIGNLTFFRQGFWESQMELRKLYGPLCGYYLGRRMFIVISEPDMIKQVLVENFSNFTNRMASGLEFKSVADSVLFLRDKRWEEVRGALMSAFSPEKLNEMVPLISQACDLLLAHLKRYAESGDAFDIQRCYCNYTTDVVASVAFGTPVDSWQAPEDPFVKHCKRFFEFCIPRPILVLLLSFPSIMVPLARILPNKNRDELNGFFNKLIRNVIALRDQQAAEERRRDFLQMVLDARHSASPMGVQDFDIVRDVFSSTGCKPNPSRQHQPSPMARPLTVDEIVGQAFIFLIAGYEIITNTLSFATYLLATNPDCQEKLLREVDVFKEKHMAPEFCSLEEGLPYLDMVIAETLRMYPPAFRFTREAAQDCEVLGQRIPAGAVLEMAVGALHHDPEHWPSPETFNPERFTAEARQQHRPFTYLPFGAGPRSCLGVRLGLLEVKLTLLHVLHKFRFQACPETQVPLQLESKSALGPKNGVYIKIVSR

Cytochrome P450 2A6 = target: T2, Cytochrome P450 2A6 (Homo sapiens, UniProt P11509); details: bti-tn-5b1-4; further: in other assays of this panel Not Active means under 50% inhibition at 10 µM
T2 sequence (P11509 whole entry): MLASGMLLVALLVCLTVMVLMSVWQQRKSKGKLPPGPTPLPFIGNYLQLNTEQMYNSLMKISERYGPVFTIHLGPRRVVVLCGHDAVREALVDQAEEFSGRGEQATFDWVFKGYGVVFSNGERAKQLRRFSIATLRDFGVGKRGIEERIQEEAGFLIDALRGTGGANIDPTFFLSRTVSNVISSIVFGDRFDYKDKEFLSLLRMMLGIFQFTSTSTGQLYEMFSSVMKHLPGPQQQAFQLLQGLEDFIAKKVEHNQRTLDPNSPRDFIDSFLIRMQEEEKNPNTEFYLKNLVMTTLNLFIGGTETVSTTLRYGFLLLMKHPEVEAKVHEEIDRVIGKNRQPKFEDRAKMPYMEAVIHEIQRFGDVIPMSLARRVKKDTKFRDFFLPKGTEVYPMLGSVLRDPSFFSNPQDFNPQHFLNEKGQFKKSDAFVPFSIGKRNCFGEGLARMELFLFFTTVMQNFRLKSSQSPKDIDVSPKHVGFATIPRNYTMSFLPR

Melanocortin receptor 4 = Melanocortin receptor 4 (Homo sapiens, UniProt P32245); type: cell membranes, Membrane; details: hek293; further: in other assays of this panel Not Active means under 50% inhibition at 10 µM
[2] = DRUGMATRIX: Tumor Necrosis Factor (TNF), Non-Selective radioligand binding (ligand: [125I] TNF-alpha); type: cell membranes, Membrane; details: u-937; Not Active = under 50% inhibition at 10 µM
[3] = DRUGMATRIX: Glutamate, Kainate radioligand binding (ligand: [3H] Kainic acid); type: cell membranes, Rattus norvegicus, Wistar, Brain, Membrane; details: Not Active = under 50% inhibition at 10 µM

Sequence of Melanocortin receptor 4 (P32245 whole entry): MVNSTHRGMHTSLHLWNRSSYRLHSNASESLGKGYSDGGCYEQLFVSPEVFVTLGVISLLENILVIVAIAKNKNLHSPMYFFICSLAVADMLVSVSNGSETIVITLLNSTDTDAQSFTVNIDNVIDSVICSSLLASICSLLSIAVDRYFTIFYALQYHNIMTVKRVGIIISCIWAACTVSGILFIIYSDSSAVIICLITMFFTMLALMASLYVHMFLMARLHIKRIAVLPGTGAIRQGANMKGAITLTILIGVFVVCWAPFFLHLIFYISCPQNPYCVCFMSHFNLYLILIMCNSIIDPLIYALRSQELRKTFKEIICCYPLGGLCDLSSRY
Sequence of Beta-3 adrenergic receptor (P13945 whole entry): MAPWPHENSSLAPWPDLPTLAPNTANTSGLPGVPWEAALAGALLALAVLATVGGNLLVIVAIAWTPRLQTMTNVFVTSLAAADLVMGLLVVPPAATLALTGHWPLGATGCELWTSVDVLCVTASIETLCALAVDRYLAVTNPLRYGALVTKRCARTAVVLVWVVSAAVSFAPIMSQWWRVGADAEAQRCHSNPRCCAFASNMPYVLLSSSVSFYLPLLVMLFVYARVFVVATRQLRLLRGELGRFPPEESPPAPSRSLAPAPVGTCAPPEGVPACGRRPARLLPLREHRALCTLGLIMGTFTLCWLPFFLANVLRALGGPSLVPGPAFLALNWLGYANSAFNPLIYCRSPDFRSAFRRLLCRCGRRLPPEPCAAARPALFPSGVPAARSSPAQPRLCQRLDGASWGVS

CC(C)(C)NC[C@H](O)COc1nsnc1N1CCOCC1 [TIMOLOL]
452 nM: IC50 ([1]; read-out: IC50)
Not Active: IC50 (Thromboxane-A synthase; platelet) | IC50 (Cytochrome P450 2A6) | Ki (Cytochrome P450 2A6) | IC50 (Melanocortin receptor 4) | IC50 [2] | Ki [2] | IC50 [3] | Ki [3]
339 nM: Ki ([1]; read-out: Ki)

C[C@@H]1C[C@H]2[C@@H]3CCC4=CC(=O)C=C[C@]4(C)C3=CC[C@]2(C)[C@H]1C(=O)CN1CCN(c2cc(N3CCCC3)nc(N3CCCC3)n2)CC1 [TIRILAZAD]
Not Active: IC50 ([1]; hek293) | IC50 (Thromboxane-A synthase; platelet) | IC50 (Cytochrome P450 2A6) | Ki (Cytochrome P450 2A6) | IC50 (Melanocortin receptor 4) | IC50 [2] | Ki [2] | IC50 [3] | Ki [3]

NC[C@H]1O[C@H](O[C@H]2[C@H](O)[C@@H](O[C@H]3O[C@H](CO)[C@@H](O)[C@H](N)[C@H]3O)[C@H](N)C[C@@H]2N)[C@H](N)C[C@@H]1O [TOBRAMYCIN]
Not Active: IC50 ([1]; hek293) | IC50 (Thromboxane-A synthase; platelet) | IC50 (Cytochrome P450 2A6) | Ki (Cytochrome P450 2A6) | IC50 (Melanocortin receptor 4) | IC50 [2] | Ki [2] | IC50 [3] | Ki [3]

O=C(O)C(Cl)(Cl)Cl [TRICHLOROACETIC ACID]
Not Active: IC50 ([1]; hek293) | IC50 (Thromboxane-A synthase; platelet) | IC50 (Cytochrome P450 2A6) | Ki (Cytochrome P450 2A6) | IC50 (Melanocortin receptor 4) | IC50 [2] | Ki [2] | IC50 [3] | Ki [3]

CC(=O)O[C@H]1C[C@@H]2CC[C@@H]3[C@H](CC[C@@]4(C)[C@H]3C[C@H]([N+]3(C)CCCCC3)[C@@H]4OC(C)=O)[C@@]2(C)C[C@@H]1N1CCCCC1.[Br-] [VECURONIUM BROMIDE]
Not Active: IC50 ([1]; hek293) | IC50 (Thromboxane-A synthase; platelet) | IC50 (Cytochrome P450 2A6) | Ki (Cytochrome P450 2A6) | IC50 (Melanocortin receptor 4) | IC50 [2] | Ki [2] | IC50 [3] | Ki [3]

COc1cc(C(=O)NS(=O)(=O)c2ccccc2C)ccc1Cc1cn(C)c2ccc(NC(=O)OC3CCCC3)cc12 [ZAFIRLUKAST]
3810 nM: IC50 (Thromboxane-A synthase; read-out: IC50)
Not Active: IC50 ([1]; hek293) | IC50 (Cytochrome P450 2A6) | Ki (Cytochrome P450 2A6) | IC50 (Melanocortin receptor 4) | IC50 [2] | Ki [2] | IC50 [3] | Ki [3]

Cc1cn([C@H]2C[C@H](N=[N+]=[N-])[C@@H](CO)O2)c(=O)[nH]c1=O [ZIDOVUDINE]
Not Active: IC50 ([1]; hek293) | IC50 (Thromboxane-A synthase; platelet) | IC50 (Cytochrome P450 2A6) | Ki (Cytochrome P450 2A6) | IC50 (Melanocortin receptor 4) | IC50 [2] | Ki [2] | IC50 [3] | Ki [3]

STANNOUS FLUORIDE
Not Active: IC50 ([1]; hek293) | Ki ([1]; hek293) | IC50 (Thromboxane-A synthase; platelet) | Ki (Thromboxane-A synthase; platelet) | IC50 (Cytochrome P450 2A6) | Ki (Cytochrome P450 2A6) | IC50 (Melanocortin receptor 4) | Ki (Melanocortin receptor 4) | IC50 [2] | Ki [2] | IC50 [3] | Ki [3]

THIMEROSAL
Not Active: IC50 ([1]; hek293) | Ki ([1]; hek293) | IC50 (Thromboxane-A synthase; platelet) | Ki (Thromboxane-A synthase; platelet) | IC50 (Cytochrome P450 2A6) | Ki (Cytochrome P450 2A6) | IC50 (Melanocortin receptor 4) | Ki (Melanocortin receptor 4) | IC50 [2] | Ki [2] | IC50 [3] | Ki [3]
